Test [1] has as its system Enterobacteriaceae with MCR-1 (MCR-1 isolates, n=14). The experiment in a line: CLSI broth microdilution MIC, MCR-1 isolates. The format is cell-based. As to conditions: all MCR-1 isolates (n=14). The protocol:
(§1) Four compounds, including Compound No. 8 of the present application (RX-04D) were tested against (i) multiresistant Enterobacteriaceae and Acinetobacter with carbapenemases; (ii) Enterobacteriaceae with MCR-1; and (iii) P. aeruginosa with altered efflux (see Tables 4 and 5). In this case, MCR-1 is relevant because its activity reduces the negative charge of lipopolysaccharides, potentially affecting binding of poly-basic molecules such as the compounds tested herein, as well as polymyxins.
(§2) MICs of the four tested compounds and comparators (amikacin, cefepime, colistin, meropenem and tigecyline) were determined by CLSI broth microdilution using pre-prepared plates (Trek Diagnostic Systems) (CLSI Approved Standard M7-A10). Carbapenemase and mcr-1 genes were detected by PCR or sequencing. Efflux levels in P. aeruginosa isolates were inferred by interpretive reading of antibiogram data.
On the technique in general: Broth dilution looks for growth in wells or tubes with falling amounts of substance.

The test system of test [2] is A. baumannii isolates (n=10). The experiment in a line: CLSI broth microdilution MIC, A. baumannii. As to conditions: for MIC: Acinetobacter baumannii, A. baumannii. Type of test: cell-based. The protocol:
as §1, §2

Test [3] has as its system Enterobacteriaceae (n=68). The test can be described thus: CLSI broth microdilution MIC, Enterobacteriaceae panel. Type of test: cell-based. On the procedure: as §1, §2
Test [4] has as its system CPE (n=36). The experiment in a line: CLSI broth microdilution MIC, carbapenemase producers (CPE). The format is cell-based, Enterobacteriaceae. As to conditions: 35/36 (97%) for RX-04A. The protocol: as §1, §2
Test [5] has as its system E. coli DH10B mcr-1 transformant. The experiment in a line: CLSI broth microdilution MIC, E. coli DH10B mcr-1 transformant. Type of test: cell-based. As to conditions: Escherichia coli. On the procedure:
as §1, §2

Test [6] deals with E. coli DH10B recipient. The experiment in a line: CLSI broth microdilution MIC, E. coli DH10B recipient. Type of test: cell-based. As to conditions: Escherichia coli, DH10BRECIPIENT, read-out: MIC. The protocol: as §1, §2
The subject of test [7] is P. aeruginosa (n=20). The test can be described thus: CLSI broth microdilution MIC, P. aeruginosa. The format is cell-based. As to conditions: for MIC: Pseudomonas aeruginosa. The protocol:
as §1, §2

Each structure is given as a SMILES string. Values after ≈ are worked out from the molar mass of the structure shown. Read-outs that look alike come from different tables or passages of the source.

The values that follow come from patent publication US10815237B2, “Antimicrobials and methods of making and using same” (BIOVERSYS AG, priority 2016, dated 2020).

In the case of `C[C@H](N)CCCc1cc(OC(F)(F)F)c(F)c(-c2cc3cn(-c4ccc([C@@H]5CCC[C@@H](CCNC(=N)N)N5)cc4)c(=O)nc3[nH]2)c1` [RX-04A], the “MIC relative to MIC for E. coli ATCC 25922” value in test [1] is reported as ≤ 2 fold; in test [4], ≤ 4 fold. Moreover, the “relative activity among analogues” value in test [2] (10 A. baumannii) is reported as “lowest MICs”. For the same compound, the MIC is 1 to 2 µg/mL (≈ 1.56 to 3.11 µM) in test [2] (7/10 values, read-out: MICs); 1 to 2 µg/mL (≈ 1.56 to 3.11 µM) in test [2] (summary, read-out: MICs mostly); 0.25 to 2 µg/mL (≈ 0.389 to 3.11 µM) in test [3] (67/68 (>98%) of Enterobacteriaceae, read-out: MICs); 1 to 2 µg/mL (≈ 1.56 to 3.11 µM) in test [3] (Enterobacteriaceae, summary, read-out: MICs mostly); 0.25 µg/mL (≈ 0.389 µM) in test [5]; 0.25 µg/mL (≈ 0.389 µM) in test [6]. For the same compound, the MIC in test [7] (19/20 (95%) P. aeruginosa isolates, read-out: MICs) was 1 to 4 µg/mL (≈ 1.56 to 6.22 µM); in test [7] (P. aeruginosa, summary, read-out: MICs mostly), 1 to 4 µg/mL (≈ 1.56 to 6.22 µM). Also, the “peak of unimodal MIC distribution” value in test [3] (68 Enterobacteriaceae) is 1 µg/mL. Besides, in test [7] (P. aeruginosa isolates with elevated efflux), the “change of MIC with elevated efflux” value is given as “not raised”.
